Data: US20090005375A1, “ACETYL COENZYME A CARBOXYLASE INHIBITORS” (priority 2007, published 2009)

Columns and labels:
Human ACC2 = target: T1, Human ACC2 (Homo sapiens, UniProt O00763); assay: In vitro enzymatic ACC activity assay (malachite green), ACC2; assay type: biochemical; conditions: recombinant His-tagged enzyme, absorbance at 620 nm
T1 construct: made in house; host or cells: SF-9 insect cells (baculovirus, pFAST-BacHTa)
Procedure: (§1) Provided in Example A is an in vitro enzymatic ACC activity assay for activity against ACC. The binding affinity of the test compound to ACC1 or ACC2 is determined by the changes in absorbance (at 620 nm); […]. It should be noted that a variety of other expression systems and hosts are also suitable for the expression of ACC, as would be readily appreciated by one of skill in the art.
Human ACC2 cDNA except coding region for mitochondria localization sequence was amplified from human skeletal muscle cDNA by polymerase chain reaction using primers; 5′[…]3′ (SEQ ID NO: 3) and 5′[…]3′ (SEQ ID NO: 4). The amplified DNA fragment was digested by SalI and AflII, and cloned into pFAST-BacHTa (Invitrogen). Preparation of recombinant vaculovirus, infection of the virus to SF-9 cells and purification of recombinant ACC2 protein with 6×His-tag at the N-terminal were performed in the same method as described above.
(§2) Malachite green solution was prepared by mixing 100 mL of solution A (0.12% malachite green in 5NH2SO4), 25 mL of solution B (7.5% ammonium molybdate) and 2 mL of solution C (11% TWEEN-20).
(§3) ACC1 was diluted to 8 μg/mL in reaction buffer (50 mM HEPES pH7.5, 10 mM MgCl2, 10 mM tripotassium citrate, 2 mM DTT, 0.75 mg/mL fatty acid free BSA) and 10 μL diluted enzyme solution was pored into each well of 384-well clear bottom plate. Test compound was diluted in the reaction buffer and 5 μL of the compound solution was added into each well, and the mixture was incubated at 30° C. for 60 minutes. Reaction was initiated by addition of 5 μL substrate solution (50 mM KHCO3, 200 μM ATP, 200 μM acetyl-CoA). After incubation at 30° C. for 20 minutes, reaction was terminated by addition of 5 μL malachite green solution and absorbance at 620 nm was measured.
ACC2 was diluted to 6.4 μg/mL in reaction buffer, and the activity was measured by the same method as described for ACC1.
(§4) Percent activity at each concentration of compound was calculated from the following equation: […]
(§5) Data were subjected to nonlinear regression analysis using GraphPad Prism Software (GraphPad Software Inc.) to obtain IC50 values.

Human ACC1 = target: T2, Human ACC1 (Homo sapiens, UniProt Q13085); assay: In vitro enzymatic ACC activity assay (malachite green), ACC1; assay type: biochemical; conditions: recombinant His-tagged enzyme, absorbance at 620 nm
T2 construct: made in house; host or cells: SF-9 insect cells (baculovirus, pFAST-BacHTc)
Procedure: as §1
Human ACC1 cDNA was amplified from human liver cDNA by polymerase chain reaction using primers; 5′[…]3′ (SEQ ID NO: 1) and 5′[…]3′ (SEQ ID NO: 2). The amplified DNA fragment was digested by restriction enzyme SalI and NotI, and cloned into pFAST-BacHTc (Invitrogen). This plasmid DNA was used for preparation of recombinant vaculovirus with BAC-TO-BAC Baculovirus Expression System (Invitrogen).
SF-9 cells were infected with the vaculovirus and cultured at 27° C. for 3 days. Harvested cells were homogenized in buffer A (25 mM HEPES (pH7.5), 130 mM NaCl, 1 mM EDTA, 25 mM sodium glycerophosphate, 1 mM sodium orthovanadate, 10% glycerol, complete protease inhibitor), and subjected to ultracentrifuge at 185700×g for 50 min at 4° C. ACC1 protein with 6×His-tag at the N-terminal was purified from the supernatant using Ni-NTA Super Flow Gel (QIAGEN). Eluted protein was dialysed against buffer B (50 mM HEPES (pH 7.5), 300 mM NaCl, 10 mM MgCl2, 10 mM tripotassium citrate, 2 mM dithiothreitol) and concentrated using Vivaspin20 ultrafiltration tube (Sartorius).
as §2, §3, §4, §5

T1 sequence (O00763 117-2458 limits assumed): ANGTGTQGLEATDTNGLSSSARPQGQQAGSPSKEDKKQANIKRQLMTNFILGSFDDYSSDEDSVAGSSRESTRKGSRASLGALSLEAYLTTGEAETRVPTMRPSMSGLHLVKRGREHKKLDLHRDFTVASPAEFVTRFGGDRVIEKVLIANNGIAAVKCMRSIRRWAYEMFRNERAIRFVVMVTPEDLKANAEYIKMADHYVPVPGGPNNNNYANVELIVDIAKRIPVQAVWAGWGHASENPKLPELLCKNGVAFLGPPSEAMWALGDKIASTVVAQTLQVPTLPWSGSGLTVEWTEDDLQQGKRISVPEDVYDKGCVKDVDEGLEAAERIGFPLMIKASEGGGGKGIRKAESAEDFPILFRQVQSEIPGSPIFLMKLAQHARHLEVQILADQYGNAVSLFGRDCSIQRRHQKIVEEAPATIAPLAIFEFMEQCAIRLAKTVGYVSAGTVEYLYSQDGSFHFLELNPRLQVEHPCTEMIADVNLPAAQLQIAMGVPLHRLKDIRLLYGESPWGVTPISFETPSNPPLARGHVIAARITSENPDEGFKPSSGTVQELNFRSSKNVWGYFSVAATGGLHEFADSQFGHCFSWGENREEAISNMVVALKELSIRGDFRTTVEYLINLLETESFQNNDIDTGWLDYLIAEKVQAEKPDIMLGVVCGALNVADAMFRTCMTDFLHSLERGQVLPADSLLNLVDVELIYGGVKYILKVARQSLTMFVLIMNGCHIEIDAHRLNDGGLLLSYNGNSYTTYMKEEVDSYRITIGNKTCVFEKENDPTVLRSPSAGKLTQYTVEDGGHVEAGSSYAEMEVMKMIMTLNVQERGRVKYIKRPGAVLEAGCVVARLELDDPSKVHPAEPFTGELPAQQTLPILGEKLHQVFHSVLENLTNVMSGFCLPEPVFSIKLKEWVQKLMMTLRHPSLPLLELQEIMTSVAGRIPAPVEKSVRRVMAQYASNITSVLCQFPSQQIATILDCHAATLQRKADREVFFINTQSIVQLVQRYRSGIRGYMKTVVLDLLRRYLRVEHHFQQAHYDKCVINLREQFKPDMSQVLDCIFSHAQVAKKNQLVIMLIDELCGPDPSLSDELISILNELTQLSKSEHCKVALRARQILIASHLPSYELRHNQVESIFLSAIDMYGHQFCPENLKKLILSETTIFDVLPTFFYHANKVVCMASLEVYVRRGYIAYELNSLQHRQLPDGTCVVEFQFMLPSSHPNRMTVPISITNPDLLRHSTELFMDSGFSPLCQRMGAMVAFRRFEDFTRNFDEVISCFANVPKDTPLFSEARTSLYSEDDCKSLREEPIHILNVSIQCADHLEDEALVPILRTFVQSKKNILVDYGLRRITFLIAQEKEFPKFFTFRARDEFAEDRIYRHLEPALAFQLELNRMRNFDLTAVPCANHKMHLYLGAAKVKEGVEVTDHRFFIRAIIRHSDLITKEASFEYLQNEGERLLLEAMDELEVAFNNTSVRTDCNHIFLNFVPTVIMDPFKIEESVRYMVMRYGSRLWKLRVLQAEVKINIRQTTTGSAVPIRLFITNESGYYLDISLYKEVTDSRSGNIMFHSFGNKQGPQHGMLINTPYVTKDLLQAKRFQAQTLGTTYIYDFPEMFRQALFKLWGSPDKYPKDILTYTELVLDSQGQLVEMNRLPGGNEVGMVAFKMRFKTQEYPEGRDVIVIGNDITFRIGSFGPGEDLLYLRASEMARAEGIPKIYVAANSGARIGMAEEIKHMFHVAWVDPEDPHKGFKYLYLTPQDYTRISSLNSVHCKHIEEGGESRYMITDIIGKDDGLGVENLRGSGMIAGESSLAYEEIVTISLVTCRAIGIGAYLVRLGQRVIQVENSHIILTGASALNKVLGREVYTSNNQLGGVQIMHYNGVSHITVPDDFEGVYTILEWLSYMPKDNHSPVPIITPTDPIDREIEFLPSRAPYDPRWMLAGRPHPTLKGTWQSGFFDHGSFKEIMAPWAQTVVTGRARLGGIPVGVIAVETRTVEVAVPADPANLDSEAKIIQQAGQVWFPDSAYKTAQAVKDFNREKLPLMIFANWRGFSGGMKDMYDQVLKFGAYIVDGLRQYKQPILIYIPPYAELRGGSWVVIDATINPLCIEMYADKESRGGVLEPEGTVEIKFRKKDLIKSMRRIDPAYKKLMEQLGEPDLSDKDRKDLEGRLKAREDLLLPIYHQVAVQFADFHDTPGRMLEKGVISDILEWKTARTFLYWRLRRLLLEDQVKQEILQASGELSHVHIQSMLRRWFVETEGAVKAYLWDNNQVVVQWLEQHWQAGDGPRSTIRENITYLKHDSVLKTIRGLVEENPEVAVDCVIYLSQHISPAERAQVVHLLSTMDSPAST

Row | SMILES | IC50 (Human ACC2) | IC50 (Human ACC1)
1 | CCNC(=O)Nc1sc2ccccc2c1C(=O)N1CCN(S(=O)(=O)CCC(=O)N2CCOCC2)CC1 [Example 36, ethyl-3-(3-(4-(3-morpholino-3-oxopropylsulfonyl)piperazine-1-carbonyl)benzo[b]thiophen-2-yl)urea] | 5 to 50 µM | 5 to 50 µM
2 | CCNC(=O)Nc1sc2ccccc2c1C(=O)N1CCN(S(=O)(=O)CCC(=O)OCC)CC1 [Example 25, Ethyl 3-(4-(2-(3-ethylureido)benzo[b]thiophene-3-carbonyl)piperazin-1-ylsulfonyl)propanoate] | 5 to 50 µM | 5 to 50 µM
3 | CCNC(=O)Nc1sc2ccccc2c1C(=O)N1CCC(Sc2cccc(OC(F)(F)F)c2)CC1 [Example 40, ethyl-3-(3-(4-(3-(trifluoromethoxy)phenylthio)piperidine-1-carbonyl)benzo[b]thiophen-2-yl)urea] | 5 to 50 µM | > 50 µM
4 | CCNC(=O)Nc1sc2ccccc2c1C(=O)N1CCC(Sc2cccc(OC)c2)CC1 [Example 39, ethyl-3-(3-(4-(3-methoxyphenylthio)piperidine-1-carbonyl)benzo[b]thiophen-2-yl)urea] | < 5 µM | < 5 µM
5 | CCNC(=O)Nc1sc2ccccc2c1C(=O)N1CCN(S(=O)(=O)c2ccc3c(c2)NC(=O)C3)CC1 [Example 30, ethyl-3-(3-(4-(2-oxoindolin-6-ylsulfonyl)piperazine-1-carbonyl)benzo[b]thiophen-2-yl)urea] | < 5 µM | 5 to 50 µM
6 | CCNC(=O)Nc1sc2ccccc2c1C(=O)N1CCN(S(=O)(=O)c2ccc(N3CCOCC3)nc2)CC1 [Example 14, ethyl-3-(3-(4-(6-morpholinopyridin-3-ylsulfonyl)piperazine-1-carbonyl)benzo[b]thiophen-2-yl)urea] | < 5 µM | < 5 µM
7 | CCNC(=O)Nc1sc2ccccc2c1C(=O)N1CCN(S(=O)(=O)c2cccc(-c3noc(C)n3)c2)CC1 [Example 13, ethyl-3-(3-(4-(3-(5-methyl-1,2,4-oxadiazol-3-yl)phenylsulfonyl)piperazine-1-carbonyl)benzo[b]thiophen-2-yl)urea] | < 5 µM | < 5 µM
8 | CCNC(=O)Nc1sc2ccccc2c1C(=O)N1CCN(S(=O)(=O)CCC(F)(F)F)CC1 [Example 27, ethyl-3-(3-(4-(3,3,3-trifluoropropylsulfonyl)piperazine-1-carbonyl)benzo[b]thiophen-2-yl)urea] | 5 to 50 µM | > 50 µM
9 | CCNC(=O)Nc1sc2ccccc2c1C(=O)N1CCN(S(=O)(=O)c2ccc3nsnc3c2)CC1 [Example 6, 1-(3-(4-(benzo[c][1,2,5]thiadiazol-5-ylsulfonyl)piperazine-1-carbonyl)benzo[b]thiophen-2-yl)-3-ethylurea] | > 50 µM | > 50 µM
10 | CCNC(=O)Nc1sc2ccccc2c1C(=O)N1CCN(S(=O)(=O)c2ccc3ncsc3c2)CC1 [Example 21, 1-(3-(4-(benzo[d]thiazol-6-ylsulfonyl)piperazine-1-carbonyl)benzo[b]thiophen-2-yl)-3-ethylurea] | < 5 µM | < 5 µM
11 | CCNC(=O)Nc1sc2ccccc2c1C(=O)N1CCN(S(=O)(=O)c2ccc(Cl)c(S(N)(=O)=O)c2)CC1 [Example 9, 2-chloro-5-(4-(2-(3-ethylureido)benzo[b]thiophene-3-carbonyl)piperazin-1-ylsulfonyl)benzenesulfonamide] | < 5 µM | < 5 µM
12 | CCNC(=O)Nc1sc2ccccc2c1C(=O)N1CCN(S(=O)(=O)c2cccc(S(C)(=O)=O)c2)CC1 [Example 5, ethyl-3-(3-(4-(3-(methylsulfonyl)phenylsulfonyl)piperazine-1-carbonyl)benzo[b]thiophen-2-yl)urea] | 5 to 50 µM | 5 to 50 µM
13 | CCNC(=O)Nc1sc2ccccc2c1C(=O)N1CCN(S(=O)(=O)c2ccc3c(c2)OCO3)CC1 [Example 4, 1-(3-(4-(benzo[d][1,3]dioxol-5-ylsulfonyl)piperazine-1-carbonyl)benzo[b]thiophen-2-yl)-3-ethylurea] | 5 to 50 µM | > 50 µM
14 | CCNC(=O)Nc1sc2ccccc2c1C(=O)N1CCN(S(=O)(=O)c2ccc3c(c2)OCCCO3)CC1 [Example 18, 1-(3-(4-(3,4-dihydro-2H-benzo[b][1,4]dioxepin-7-ylsulfonyl)piperazine-1-carbonyl)benzo[b]thiophen-2-yl)-3-ethylurea] | < 5 µM | < 5 µM
15 | CCNC(=O)Nc1sc2ccccc2c1C(=O)N1CCN(S(=O)(=O)c2ccccc2C#N)CC1 [Example 2, 1-(3-(4-(2-cyanophenylsulfonyl)piperazine-1-carbonyl)benzo[b]thiophen-2-yl)-3-ethylurea] | > 50 µM | > 50 µM
16 | CCNC(=O)Nc1sc2ccccc2c1C(=O)N1CCN(S(C)(=O)=O)CC1 [Example 28, ethyl-3-(3-(4-(methylsulfonyl)piperazine-1-carbonyl)benzo[b]thiophen-2-yl)urea] | > 50 µM | > 50 µM
17 | CCNC(=O)Nc1sc2ccccc2c1C(=O)N1CCN(S(=O)(=O)c2cccc(OC)c2)CC1 [Example 7, ethyl-3-(3-(4-(3-methoxyphenylsulfonyl)piperazine-1-carbonyl)benzo[b]thiophen-2-yl)urea] | < 5 µM | > 50 µM
18 | CCNC(=O)Nc1sc2ccccc2c1C(=O)N1CCN(S(=O)(=O)c2ccccc2)CC1 [Example 3, ethyl-3-(3-(4-(phenylsulfonyl)piperazine-1-carbonyl)benzo[b]thiophen-2-yl)urea] | > 50 µM | > 50 µM
19 | CCNC(=O)Nc1sc2ccccc2c1C(=O)N1CCN(S(=O)(=O)c2ccc(OC)c(OC)c2)CC1 [Example 23, 1-(3-(4-(3,4-dimethoxyphenylsulfonyl)piperazine-1-carbonyl)benzo[b]thiophen-2-yl)-3-ethylurea] | < 5 µM | < 5 µM
20 | CCNC(=O)Nc1sc2ccccc2c1C(=O)N1CCN(S(=O)(=O)c2ccc3[nH]c(=O)[nH]c3c2)CC1 [Example 31, ethyl-3-(3-(4-(2-oxo-2,3-dihydro-1H-benzo[d]imidazol-5-ylsulfonyl)piperazine-1-carbonyl)benzo[b]thiophen-2-yl)urea] | < 5 µM | < 5 µM
21 | CCNC(=O)Nc1sc2ccccc2c1C(=O)N1CCC([S+]([O-])c2cccc(OC)c2)CC1 (centres unmarked) [Example 41, ethyl-3-(3-(4-(3-methoxyphenylsulfinyl)piperidine-1-carbonyl)benzo[b]thiophen-2-yl)urea] | 5 to 50 µM | 5 to 50 µM
22 | CCNC(=O)Nc1sc2ccccc2c1C(=O)N1CCN(S(=O)(=O)c2ccc3oc(=O)[nH]c3c2)CC1 [Example 32, ethyl-3-(3-(4-(2-oxo-2,3-dihydrobenzo[d]oxazol-5-ylsulfonyl)piperazine-1-carbonyl)benzo[b]thiophen-2-yl)urea] | 5 to 50 µM | > 50 µM
23 | CCNC(=O)Nc1sc2ccccc2c1C(=O)N1CCN(S(=O)(=O)CC(C)C)CC1 [Example 26, ethyl-3-(3-(4-(isobutylsulfonyl)piperazine-1-carbonyl)benzo[b]thiophen-2-yl)urea] | 5 to 50 µM | 5 to 50 µM
24 | CCNC(=O)Nc1sc2ccccc2c1C(=O)N1CCN(S(=O)(=O)c2cccc(NC(C)=O)c2)CC1 [Example 8, N-(3-(4-(2-(3-ethylureido)benzo[b]thiophene-3-carbonyl)piperazin-1-ylsulfonyl)phenyl)acetamide] | < 5 µM | 5 to 50 µM
25 | CCNC(=O)Nc1sc2ccccc2c1C(=O)N1CCC([S+]([O-])c2cccc(OC(F)(F)F)c2)CC1 (centres unmarked) [Example 42, ethyl-3-(3-(4-(3-(trifluoromethoxy)phenylsulfinyl)piperidine-1-carbonyl)benzo[b]thiophen-2-yl)urea] | 5 to 50 µM | > 50 µM
